# Measurements as given in patent publication US10968203B2, “Pyrimidinyl-pyridyloxy-naphthyl compounds and methods of treating IRE1-related diseases and disorders” (Genentech, Inc., priority 2017, dated 2021).
# Structures can show the parent of a compound that is named as a salt.
# System: XBP1s-luc 293 LUC
# Assay: cellular PD assay, XBP1s-LUC reporter (Example 903)
# Assay type: cell-based
# Conditions: Table 1; read-out: XBP1s-luc 293 LUC (IC50)
# Outline: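 A luciferase fusion, in frame and expressed only when the XBP1 transcript is spliced, served as the readout of cellular IRE1α activity in an XBP1-Luc reporter line.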
row,SMILES,IC50 [nM]
1,"Cc1ccc2c(NS(=O)(=O)CC(F)(F)F)cccc2c1Oc1ncccc1-c1ccnc(N[C@H]2CCCNC2)n1 [Example 122, (S)-2,2,2-Trifluoro-N-(6-methyl-5-((3-(2-(piperidin-3-ylamino)pyrimidin-4-yl)pyridin-2-yl)oxy)naphthalen-1-yl)ethane-1-sulfonamide hydrochloride]",105
2,"Cc1ccc2c(N3C(=O)CCC3C)cccc2c1Oc1ncccc1-c1ccnc(N[C@H]2CCCNC2)n1 (mixture of isomers) [Example 237, 5-Methyl-1-(6-methyl-5-((3-(2-((S)-piperidin-3-ylamino)pyrimidin-4-yl)pyridin-2-yl)oxy)naphthalen-1-yl)pyrrolidin-2-one]",472
3,"Cc1ccc2c(NC(=O)C3(C)CC3)cccc2c1Oc1ncccc1-c1ccnc(N[C@H]2CCCNC2)n1 [Example 154, (S)-1-Methyl-N-(6-methyl-5-((3-(2-(piperidin-3-ylamino)pyrimidin-4-yl)pyridin-2-yl)oxy)naphthalen-1-yl)cyclopropane-1-carboxamide]",239
4,"Cc1ccc2c(NC(=O)[C@@H]3CC34CC4)c(F)ccc2c1Oc1ncccc1-c1ccnc(N[C@@H]2CNC[C@H](C)C2)n1 (single isomer, unassigned) [Example 389]",41.7
5,"Cc1nc(CNc2cccc3c(Oc4ncccc4-c4ccnc(N[C@H]5CCCNC5)n4)c(C)ccc23)c(C)s1 [Example 294, (S)-4-(2-((5-(((2,5-Dimethylthiazol-4-yl)methyl)amino)-2-methylnaphthalen-1-yl)oxy)pyridin-3-yl)-N-(piperidin-3-yl)pyrimidin-2-amine]",241
6,"CCCS(=O)(=O)Nc1c(F)ccc2c(Oc3ncccc3-c3ccnc(N[C@@H]4CNC[C@H](C)C4)n3)c(C)ccc12 [Example 367, N-(2-Fluoro-6-methyl-5-((3-(2-(((3S,5R)-5-methylpiperidin-3-yl)amino)pyrimidin-4-yl)pyridin-2-yl)oxy)naphthalen-1-yl)propane-1-sulfonamide]",14.5
7,"Cc1ccc2c(NC(=O)CC(C)(C)C)c(F)ccc2c1Oc1ncccc1-c1ccnc(N[C@@H]2CNC[C@H](C)C2)n1 [Example 374, N-(2-Fluoro-6-methyl-5-((3-(2-(((3S,5R)-5-methylpiperidin-3-yl)amino)pyrimidin-4-yl)pyridin-2-yl)oxy)naphthalen-1-yl)-3,3-dimethylbutanamide]",39.4
8,"CCC1CC(=O)N(c2cccc3c(Oc4ncccc4-c4ccnc(N[C@H]5CCCNC5)n4)c(C)ccc23)C1 (single isomer, unassigned) [Example 356]",279
9,"Cc1ccc2c(NC(=O)CC(C)C)cccc2c1Oc1ncccc1-c1ccnc(N[C@H]2CCCNC2)n1 [Example 188, (S)-3-Methyl-N-(6-methyl-5-((3-(2-(piperidin-3-ylamino)pyrimidin-4-yl)pyridin-2-yl)oxy)naphthalen-1-yl)butanamide]",141
10,"Cc1ccc2c(NCC3CC3(F)F)cccc2c1Oc1ncccc1-c1ccnc(N[C@H]2CCCNC2)n1 (mixture of isomers) [Example 341, 4-(2-((5-(((2,2-Difluorocyclopropyl)methyl)amino)-2-methylnaphthalen-1-yl)oxy)pyridin-3-yl)-N—((S)-piperidin-3-yl)pyrimidin-2-amine]",118
11,"Cc1ccc2c(NCCCF)cccc2c1Oc1ncccc1-c1ccnc(N[C@H]2CCCNC2)n1 [Example 241, (S)-4-(2-((5-((3-Fluoropropyl)amino)-2-methylnaphthalen-1-yl)oxy)pyridin-3-yl)-N-(piperidin-3-yl)pyrimidin-2-amine]",141
12,"Cc1ccc2c(NCCC(C)(C)C#N)cccc2c1Oc1ncccc1-c1ccnc(N[C@H]2CCCNC2)n1 [Example 347, (S)-2,2-Dimethyl-4-((6-methyl-5-((3-(2-(piperidin-3-ylamino)pyrimidin-4-yl)pyridin-2-yl)oxy)naphthalen-1-yl)amino)butanenitrile]",48
13,"Cc1ccc2c(NS(=O)(=O)N(C)C)cccc2c1Oc1ncccc1-c1ccnc(N[C@H]2CCCNC2)n1 [Example 109, 4-[2-[[5-(Dimethylsulfamoylamino)-2-methyl-1-naphthyl]oxy]-3-pyridyl]-2-[[(3S)-3-piperidyl]amino]pyrimidine hydrochloride]",222
14,"Cc1ccc2c(NC(=O)[C@@H]3CC34CCC4)cccc2c1Oc1ncccc1-c1ccnc(N[C@H]2CCCNC2)n1 (single isomer, unassigned) [Example 340]",17.7
15,"Cc1ccc2c(NC(=O)c3ccccn3)cccc2c1Oc1ncccc1-c1ccnc(N[C@H]2CCCNC2)n1 [Example 175, (S)—N-(6-Methyl-5-((3-(2-(piperidin-3-ylamino)pyrimidin-4-yl)pyridin-2-yl)oxy)naphthalen-1-yl)picolinamide]",333
16,"CC[C@@H](O)CNc1cccc2c(Oc3ncccc3-c3ccnc(N[C@H]4CCCNC4)n3)c(C)ccc12 [Example 312, (R)-1-((6-Methyl-5-((3-(2-((S)-piperidin-3-ylamino)pyrimidin-4-yl)pyridin-2-yl)oxy)naphthalen-1-yl)amino)butan-2-ol]",27.4
17,"CCC(=O)Nc1cccc2c(Oc3ncccc3-c3ccnc(N[C@H]4CCCNC4)n3)c(C)ccc12 [Example 173, (S)—N-(6-Methyl-5-((3-(2-(piperidin-3-ylamino)pyrimidin-4-yl)pyridin-2-yl)oxy)naphthalen-1-yl)propionamide]",226
18,"Cc1ccc2c(NCc3ccn(C)n3)cccc2c1Oc1ncccc1-c1ccnc(N[C@H]2CCCNC2)n1 [Example 262, (S)-4-(2-((2-Methyl-5-(((1-methyl-1H-pyrazol-3-yl)methyl)amino)naphthalen-1-yl)oxy)pyridin-3-yl)-N-(piperidin-3-yl)pyrimidin-2-amine]",171
19,"CCCS(=O)(=O)Nc1c(C)ccc2c(Oc3ncccc3-c3ccnc(N[C@H]4CCCNC4)n3)c(C)ccc12 [Example 285, (S)—N-(2,6-Dimethyl-5-((3-(2-(piperidin-3-ylamino)pyrimidin-4-yl)pyridin-2-yl)oxy)Naphthalen-1-yl)propane-1-sulfonamide]",71
20,"Cc1ccc2c(N3CCC4(CC4)C3=O)cccc2c1Oc1ncccc1-c1ccnc(N[C@H]2CCCNC2)n1 [Example 297, (S)-5-(6-Methyl-5-((3-(2-(piperidin-3-ylamino)pyrimidin-4-yl)pyridin-2-yl)oxy)naphthalen-1-yl)-5-azaspiro[2.4]heptan-4-one]",173
21,"Cc1ccc2c(NC(=O)[C@@H]3CC3(C)C)cccc2c1Oc1ncccc1-c1ccnc(N[C@H]2CCCNC2)n1 (single isomer, unassigned) [Example 287]",39.4
22,"Cc1ccc2c(NS(=O)(=O)Cc3cccnc3)cccc2c1Oc1ncccc1-c1ccnc(N[C@H]2CCCNC2)n1 [Example 125, (S)—N-(6-Methyl-5-((3-(2-(piperidin-3-ylamino)pyrimidin-4-yl)pyridin-2-yl)oxy)naphthalen-1-yl)-1-(pyridin-3-yl)methanesulfonamide hydrochloride]",318

# Same assay, conditions: Table 2; read-out: XBP1s-luc 293 LUC (IC50)
row,SMILES,IC50 [nM]
1,"CCCN(C)S(=O)(=O)Nc1c(F)ccc2c(Oc3ncccc3-c3ccnc(N[C@H]4CCCNC4)n3)c(C)ccc12 [Example 420, 4-[2-[[6-Fluoro-2-methyl-5-[[methyl(propyl)sulfamoyl]amino]-1-naphthyl]oxy]-3-pyridyl]-2-[[(3S)-3-piperidyl]amino]pyrimidine hydrochloride]",41
2,"Cc1ccc2c(NC(=O)CC(O)C(F)(F)F)cccc2c1Oc1ncccc1-c1ccnc(N[C@H]2CCCNC2)n1 (single isomer, unassigned) [Example 435]",338
3,"Cc1ccc2c(NS(=O)(=O)CC(F)(F)F)c(F)ccc2c1Oc1ncccc1-c1ccnc(N[C@@H]2CNC[C@@H](F)C2)n1 (single isomer, unassigned) [Example 444, hydrochloride]",19
4,"Cc1ccc2c(NS(=O)(=O)N(C)Cc3ccccc3)c(F)ccc2c1Oc1ncccc1-c1ccnc(N[C@H]2CCCNC2)n1 [Example 410, 4-[2-[[5-[[Benzyl(methyl)sulfamoyl]amino]-6-fluoro-2-methyl-1-naphthyl]oxy]-3-pyridyl]-2-[[(3S)-3-piperidyl]amino]pyrimidine hydrochloride]",87
5,"Cc1ccc2c(NS(=O)(=O)Cc3ccccc3F)c(F)ccc2c1Oc1ncccc1-c1ccnc(N[C@@H]2CNC[C@H](C)C2)n1 [Example 477, N-(2-Fluoro-6-methyl-5-((3-(2-(((3S,5R)-5-methylpiperidin-3-yl)amino)pyrimidin-4-yl)pyridin-2-yl)oxy)naphthalen-1-yl)-1-(2-fluorophenyl)methanesulfonamide]",7
6,"Cc1ccc2c(NS(=O)(=O)CC(F)(F)C(F)(F)F)c(F)ccc2c1Oc1ncccc1-c1ccnc(N[C@H]2CCCNC2)n1 [Example 439, (S)-2,2,3,3,3-Pentafluoro-N-(2-fluoro-6-methyl-5-((3-(2-(piperidin-3-ylamino)pyrimidin-4-yl)pyridin-2-yl)oxy)naphthalen-1-yl)propane-1-sulfonamide hydrochloride]",155
7,"Cc1ccc2c(NS(=O)(=O)Cc3ccccc3)c(F)ccc2c1Oc1ncccc1-c1ccnc(N[C@@H]2CNC[C@@H](F)C2)n1 (single isomer, unassigned) [Example 418, hydrochloride]",2
8,"COc1c(Cl)cccc1CS(=O)(=O)Nc1c(F)ccc2c(Oc3ncccc3-c3ccnc(N[C@H]4CCCNC4)n3)c(C)ccc12 [Example 437, (S)-1-(3-Chloro-2-methoxyphenyl)-N-(2-fluoro-6-methyl-5-((3-(2-(piperidin-3-ylamino)pyrimidin-4-yl)pyridin-2-yl)oxy)naphthalen-1-yl)methanesulfonamide hydrochloride]",18

# Same assay, conditions: read-out: XBP1s-luc 293 LUC (IC50)
row,SMILES,IC50 [nM]
1,"Cc1ccc2c(Oc3ncccc3-c3ccnc(N[C@H]4CCCNC4)n3)c(C)ccc2c1NC[C@H](O)C(F)(F)F [Example 319, (S)-3-((2,6-Dimethyl-5-((3-(2-((S)-piperidin-3-ylamino)pyrimidin-4-yl)pyridin-2-yl)oxy)naphthalen-1-yl)amino)-1,1,1-trifluoropropan-2-ol]",48.2
